Data from patent publication US7531544B2, “Xanthine phosphodiesterase V inhibitors” (Schering Corporation, priority 2000, dated 2009).

Biological target: PDE V (Homo sapiens, UniProt O76074)
Test: PDE V enzyme inhibition (PDE V IC50)
Type: biochemical

| SMILES | IC50 [nM] |
| --- | --- |
| COc1ccc(Cn2c(NC3CCCC3CO)nc3c2c(=O)n(C)c(=O)n3C)cc1 (centres unmarked) [Compound 13] | 15 to 100 |
| COc1ccc(Cn2c(N[C@@H]3CCc4ccccc43)nc3c2c(=O)n(C)c(=O)n3C)cc1 [Compound 95] | 5 to 10 |
